Laboratory results as given in US7585859B2, “PDE4B inhibitors and uses therefor” (Plexxikon, Inc., priority 2004, dated 2009).
Where two headings read alike, the source gives them in different places.

Tests used:
[1] = biological target: T1, PDE4B: The catalytic domain of human PDE4B from S152-S528 (Homo sapiens, UniProt Q07343); assay: PDE4 IC50 determination by Scintillation Proximity Assay, PDE4B; format: biochemical
T1 construct: His6 (N); thrombin cleavage site (N); made in house; host or cells: E. coli
How it was run: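 Scintillation counts reflected [^3H]AMP captured on yttrium silicate SPA beads after enzyme hydrolysed [^3H]cAMP for 30 min at 30°. PDE4B was used at 80 ng/ml and PDE4D at 4 ng/ml. IC50 values came from non-linear regression.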

[2] = tested on: TNF alpha production in LPS-stimulated human blood (Buffy coat); assay: TNF alpha production by stimulation with LPS in whole blood cultures; format: cell-based
How it was run: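 Human buffy coat blood, diluted 1:8 in RPMI with 2.5% heat-inactivated FBS, preincubated 1 h at 37 °C with serially 1:3-diluted compounds, then stimulated with LPS (100 ng/ml final) for 4 h. Supernatant TNFα quantified by sandwich ELISA, absorbance at 450 nm; IC50 values derived.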

[3] = Table 1B, Formula I compounds, read-out: IC50 PDE4B
[4] = Homo sapiens, Table 1B, Formula I compounds, read-out: IC50 h TNFα
[5] = human whole blood, LPS 100 ng/ml, read-out: IC 50 vs. indicated assay h TNFα
[6] = second part of Table 2B (2-23 to 2-103), column 3, column is PDE4B in first part, read-out: IC 50 vs. indicated assay h TNFα

T1 sequence (Q07343 with tags, fused parts or gaps): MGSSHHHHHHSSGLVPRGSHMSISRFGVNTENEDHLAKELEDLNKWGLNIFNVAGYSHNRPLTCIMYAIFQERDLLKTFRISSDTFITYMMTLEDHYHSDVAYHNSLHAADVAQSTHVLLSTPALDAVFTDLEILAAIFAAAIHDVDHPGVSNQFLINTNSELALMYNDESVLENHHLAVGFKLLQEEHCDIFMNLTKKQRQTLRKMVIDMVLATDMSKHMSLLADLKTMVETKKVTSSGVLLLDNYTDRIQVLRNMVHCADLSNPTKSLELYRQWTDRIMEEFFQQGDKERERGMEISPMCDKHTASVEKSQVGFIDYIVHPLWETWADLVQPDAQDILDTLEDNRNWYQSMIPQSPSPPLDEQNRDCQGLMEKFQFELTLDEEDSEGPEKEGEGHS

SMILES | IC50 [1, 3] | IC50 [2, 4] | IC50 ([1]; first part of Table 2B (2-1 to 2-22), read-out: IC 50 vs. indicated assay PDE4B) | IC50 [2, 5] | IC50 [1, 6]
N#Cc1c(Nc2ccccc2)sc(C(=O)C2CC2)c1N [Compound 1-28, 4-Amino-5-cyclopropanecarbonyl-2-phenylamino-thiophene-3-carbonitrile] | < 10 µM | < 10 µM | – | – | –
COc1ccc(C(=O)c2sc(Nc3ccccc3)c(C#N)c2N)cc1 [Compound 1-31] | < 10 µM | < 10 µM | – | – | –
CCOC(=O)c1c(NC2CCCC2)sc(C(=O)c2ccc(OC)cc2)c1N [Compound 1-191, 4-Amino-2-cyclopentylamino-5-(4-methoxy-benzoyl)-thiophene-3-carboxylic acid ethyl ester] | < 10 µM | > 10 µM | – | – | –
N#Cc1c(Nc2ccccc2)sc(C(=O)c2cc(-c3ccccc3)no2)c1N [Compound 1-192, 4-Amino-2-phenylamino-5-(3-phenyl-isoxazole-5-carbonyl)-thiophene-3-carbonitrile] | < 10 µM | < 10 µM | – | – | –
CC(C)Nc1sc(C(=O)c2cc(-c3ccccc3)no2)c(N)c1C#N [Compound 1-205, 4-Amino-2-isopropylamino-5-(3-phenyl-isoxazole-5-carbonyl)-thiophene-3-carbonitrile] | < 10 µM | > 10 µM | – | – | –
CC(C)Nc1sc(C(=O)c2cc(-c3ccc(Cl)cc3)no2)c(N)c1C#N [Compound 1-212, 4-Amino-5-[3-(4-chloro-phenyl)-isoxazole-5-carbonyl]-2-isopropylamino-thiophene-3-carbonitrile] | < 10 µM | > 10 µM | – | – | –
CC(C)CNc1sc(C(=O)c2cc(-c3ccccc3)no2)c(N)c1C(N)=O [Compound 1-236, 4-Amino-2-isobutylamino-5-(3-phenyl-isoxazole-5-carbonyl)-thiophene-3-carboxylic acid amide] | < 10 µM | > 10 µM | – | – | –
NC(=O)c1c(NC2CCCC2)sc(C(=O)c2cc(-c3ccccc3)no2)c1N [Compound 1-251, 4-Amino-2-cyclopentylamino-5-(3-phenyl-isoxazole-5-carbonyl)-thiophene-3-carboxylic acid amide] | < 10 µM | > 10 µM | – | – | –
Nc1nc(Nc2ccccc2F)sc1C(=O)c1cc(-c2ccccc2)no1 [Compound 2-6, [4-Amino-2-(2-fluoro-phenylamino)-thiazol-5-yl]-(3-phenyl-isoxazol-5-yl)-methanone] | – | – | < 10 µM | > 10 µM | –
Nc1nc(Nc2ccc(Cl)cc2)sc1C(=O)c1cccc(C(F)(F)F)c1 [Compound 2-23, [4-Amino-2-(4-chloro-phenylamino)-thiazol-5-yl]-(3-trifluoromethyl-phenyl)-methanone] | – | – | – | > 10 µM | < 10 µM
Nc1nc(NC2CCCC2)sc1C(=O)c1cccc(Cl)c1 [Compound 2-80, (4-Amino-2-cyclopentylamino-thiazol-5-yl)-(3-chloro-phenyl)-methanone] | – | – | – | < 10 µM | < 10 µM
